Data from paper PMC8765435, “In Vitro Antimalarial Activity of Inhibitors of the Human GTPase Rac1” (Antimicrobial Agents and Chemotherapy, 2022).

How the values were obtained:
[1] = design: method as in PMID 25389450, PMID 25594952; conditions: mice, orally, 25 mg/kg three times a week for 55 days; cited from earlier work
[2] = system: P. falciparum W2 asexual parasites; experiment: Association experiments (isobologram), W2 parasites; format: cell-based, Plasmodium falciparum; conditions: in combination with 1A116, W2 parasites
Description: The effect of 1A116 on the IC50 of EHop-016 was determined by potentiation tests as previously described ([62]). Isobolograms were created by plotting a pair of fractional IC50s for each combination of EHop-016 and 1A116. […] The corresponding 1A116 fractional IC50s were calculated by dividing each fixed concentration by the IC50 of 1A116 alone and plotted on the vertical axis.

Rac1 [3] = molecular target: Rac1 (Homo sapiens, UniProt P63000); experiment: Immunofluorescence assay with anti-Rac1/GTP on parasitophorous vacuole; format: cell-based; design: endogenous in cells; host or cells: erythrocytes from whole blood of 7 donors; conditions: 1.4 μM, 20 h
Description: We thus decided to investigate the Rac1 activation state in infected erythrocytes treated with EHop-016 and in the untreated control. To do this, we applied a methodology that allows us to specifically measure Rac1 activation levels on the parasitophorous vacuole. Freshly invaded erythrocytes were thus exposed to 1.4 μM EHop-016 treatment for 20 h and then smeared and analyzed by an immunofluorescence assay (IFA) with an antibody that specifically recognizes Rac1 in its active form (anti-Rac1/GTP). The resulting fluorescence signal was measured both in the EHop-016-treated sample and in the untreated control.
Cytotoxicity was evaluated on Human Microvascular Endothelial Cells (HMEC-1) maintained in MCDB-131 medium supplemented with 10% foetal calf serum (Euroclone), 20mM HEPES and 2 mM L-glutamine. […]
Immuno-fluorescence assay
Synchronous mature schizonts were purified by 60% Percoll gradient and allowed to invade fresh human RBCs for two hours. […] Negative controls without primary antibodies have been performed, resulting in complete absence of fluorescence s ignals. Anti-Rac1/GTP fluorescence signal was measured by using the software ImageJ (the parasitophorous vacuole area was delimited based on the anti-Exp1 signal). At least 40 cells were analyzed in each sample.

[4] = system: P. falciparum asexual parasites, chloroquine-sensitive D10 strain; experiment: Drug susceptibility assay (pLDH), asexual parasites, D10 strain; format: cell-based, Plasmodium falciparum; conditions: Plasmodium falciparum, D10, chloroquine-sensitive D10 strain; read-out: IC50, D10 strain
Description: Chloroquine (CQ)-sensitive (D10, wild-type 3D7, or transgenic 3D7elo1-pfs16-CBG99) and CQ-resistant (W2) strains of P. falciparum were cultured as described previously ([58]), with slight modifications, as detailed in the supplemental material.
Asexual parasite growth was determined spectrophotometrically (optical density at 650 nm [OD650]) by measuring the activity of parasite lactate dehydrogenase (pLDH), according to a modified version of the method of Makler et al. ([59]). Gametocyte viability was measured by a luminescence method described previously ([60]). Details for the two methods are reported in the supplemental material. From either the OD or ALU (arbitrary luminescence units), the percentages of viability were calculated according to the formula 100 × (treated sample signal − blank signal)/(untreated control signal − blank signal). The blank for the pLDH assay was uninfected RBCs at the same hematocrit as that of parasitized RBCs, and the blank for the luminescence assay was parasites treated with a high dose of methylene blue. […]
The CQ-sensitive (D10) and the CQ-resistant (W2) strains were maintained at 5% hematocrit […]
supplemented with 1% AlbuMaxII (lipid-rich bovine serum albumin) (Invitrogen), 0.01% hypoxantine (Sigma), 20mM Hepes (EuroClone), 2 mM glutamine (EuroClone). […]
In vitro P. falciparum drug susceptibility assay […]
plate were transferred to a plate containing 100µl of Malstat reagent (0.11% [vol/vol] Triton- […]
dinucleotide [APAD] [Sigma-Aldrich], adjusted to pH 9 with 1 M HCl) and 25 µl of PES/NBT […]
pLDHassay. The plate was read at a wavelength of 650 nm using a microplate reader, Synergy4 […]
Uninfected RBC at the same HCT than parasites were used as blank. […]

[5] = system: HMEC-1 human microvascular endothelial cells; experiment: Cell cytotoxicity MTT assay; format: cell-based
Description: Cytotoxicity was evaluated on human microvascular endothelial cells (HMEC-1) as detailed in the supplemental material. […] Plates were then read on a microplate reader (Synergy 4; BioTek) at a wavelength of 550 nm (reference, 650 nm). […] All tests were performed in duplicate at least three times.
The selectivity index (SI) is the ratio between the cytotoxic IC50 value against HMEC-1 cells and the parasitic IC50 value against the D10 strain and indicates the compound selectivity for the parasite.
Cytotoxicity was evaluated on Human Microvascular Endothelial Cells (HMEC-1) maintained
and 2 mM L-glutamine. Cells were seeded in 96 well flat bottom tissue culture clusters (1.5x104
cells/well), let adhere overnight and treated with serial dilutions of test compounds . […]

Rac1 [6] = system: Rac1; design: method as in PMID 22383527; conditions: Rac1 activity in MDA-MB-435 melanoma cells; cited from earlier work
[7] = system: P. falciparum invasion of red blood cells; experiment: Parasite invasion assay; format: cell-based, Plasmodium falciparum; conditions: 2.5 μM
Description: Invasion assays were performed as previously described ([17]). Invasion rates were calculated by subtracting the number of schizonts at the end of the assay (6 h postinvasion [hpi]) from the number of schizonts in the time zero (T0) sample, obtaining the number of merozoite-releasing schizonts. The number of new infections was normalized to the number of merozoite-releasing schizonts to obtain the parasitized erythrocyte multiplication rate (PEMR). This value was normalized to the control sample, obtaining the invasion rate value. The results are the means from three independent biological replicates, each performed in triplicate.

CCn1c2ccccc2c2cc(Nc3ccnc(NCCCN4CCOCC4)n3)ccc21 [EHop-016]
changes in weight or behavior [1]: did not cause any significant changes in weight or behavior
effect of combination (isobologram analysis) [2]: additive effect
fractional inhibitory concentration (FIC) [2]: < 2
anti-Rac1/GTP fluorescence intensity of parasitophorous vacuoles vs untreated control (Rac1 [3]): significantly lower
IC50 [4]: 139 ± 16 nM
IC50 ([5]; Homo sapiens, HMEC-1, MTT, 72 h, read-out: Mean HMEC-1 IC50 ± SD): 5220 ± 1070 nM
SI (selectivity index) ([5]; ratio IC50 against HMEC-1 cells / IC50 against D10 asexual parasites): 37.8
IC50 (Rac1 [6]): 1100 nM
RBC invasion efficiency (invasion rate vs untreated control) [7]: did not reduce the RBC invasion efficiency
